Laboratory results published in ChEMBL document CHEMBL1157811, “Synthesis, anticoagulant and PIVKA-II induced by new 4-hydroxycoumarin derivatives” (Bioorg Med Chem, 2010).
The source made the active and inactive calls. The calls are words filed in the database; no cut-off is given here.

Tests used:
[1] = system: HepG2; assay: Anticoagulant activity in human HepG2 cells assessed as accumulation of des-gamma carboxyprothrombin at 30 uM after 24 hrs by ELISA relative to warfarin; assay type: functional
[2] = system: HepG2; assay: Anticoagulant activity in human HepG2 cells assessed as accumulation of des-gamma carboxyprothrombin at 10 uM after 24 hrs by ELISA relative to warfarin; assay type: functional
[3] = system: HepG2; assay: Anticoagulant activity in human HepG2 cells assessed as accumulation of des-gamma carboxyprothrombin at 30 uM after 24 hrs by ELISA; assay type: functional, cell-based
[4] = system: Mus musculus; assay: Ex vivo anticoagulant activity in albino mouse assessed as blood clotting time at 150 mg/kg, po administered daily for 3 successive days measured after 24 hrs of last dose; assay type: functional
[5] = system: Mus musculus; assay: Ex vivo anticoagulant activity in albino mouse assessed as prothrombin time at 150 mg/kg, po administered daily for 3 successive days measured after 24 hrs of last dose; assay type: functional
[6] = system: HepG2; assay: Anticoagulant activity in human HepG2 cells assessed as accumulation of des-gamma carboxyprothrombin at 3.33 uM after 24 hrs by ELISA relative to warfarin; assay type: functional
[7] = system: HepG2; assay: Anticoagulant activity in human HepG2 cells assessed as accumulation of des-gamma carboxyprothrombin at 3.3 uM after 24 hrs by ELISA; assay type: functional, cell-based
[8] = system: HepG2; assay: Anticoagulant activity in human HepG2 cells assessed as accumulation of des-gamma carboxyprothrombin at 1.1 uM after 24 hrs by ELISA relative to warfarin; assay type: functional, cell-based
[9] = Toxicity in po dosed albino mouse assessed as mortality administered daily for 3 successive days; assay type: organism-based; conditions: in vivo
[10] = system: HepG2; assay: Anticoagulant activity in human HepG2 cells assessed as accumulation of des-gamma carboxyprothrombin after 24 hrs by ELISA; assay type: functional, cell-based

SMILES	Activity [1]	Activity [2]	Activity [3]	Time [4]	Time [5]	also measured
N#Cc1c(-c2ccco2)cc(-c2c(O)c3ccccc3oc2=O)nc1N	10%	7.4%	Active	–	–	–
COc1cc(C2CC(c3c(O)c4ccccc4oc3=O)=NC(S)=N2)cc(OC)c1OC (stereo not given)	13%	5.2%	Active	15.83 s	0.173 min	–
COc1ccc(C2CC(c3c(O)c4ccccc4oc3=O)=NN2)cc1 (stereo not given)	17.3%	17.76%	Active	–	–	–
O=c1oc2ccccc2c(O)c1C1=NNC(c2cccnc2)C1 (stereo not given)	–	–	inactive	17.67 s	0.53 min	–
N#Cc1c(-c2cccnc2)cc(-c2c(O)c3ccccc3oc2=O)[nH]c1=O	–	10%	–	–	–	Activity [6]: inactive
NC(=S)N1N=C(c2c(O)c3ccccc3oc2=O)CC1c1cccnc1 (stereo not given)	11.2%	9.1%	Active	16.67 s	4.017 min	–
COc1cc(C2CC(c3c(O)c4ccccc4oc3=O)=NN2c2ccccc2)cc(OC)c1OC (stereo not given)	–	–	–	–	–	Activity [7]: inactive
O=c1oc2ccccc2c(O)c1C1=NN(C(=S)Nc2ccccc2)C(c2cccnc2)C1 (stereo not given)	19.4%	19.3%	Active	12.17 s	3.505 min	–
N#Cc1c(-c2ccco2)cc(-c2c(O)c3ccccc3oc2=O)[nH]c1=O	8.8%	10%	–	–	–	–
COc1cc(C2CC(c3c(O)c4ccccc4oc3=O)=NN2C(=S)Nc2ccccc2)cc(OC)c1OC (stereo not given)	–	–	–	–	–	Activity [7]: inactive
COc1cc(-c2cc(-c3c(O)c4ccccc4oc3=O)[nH]c(=O)c2C#N)cc(OC)c1OC	–	–	inactive	15.67 s	0.192 min	–
COc1ccc(C2CC(c3c(O)c4ccccc4oc3=O)=NN2C(N)=S)cc1 (stereo not given)	18.1%	13.7%	Active	–	–	–
COc1ccc(C2CC(c3c(O)c4ccccc4oc3=O)=NN2C(=S)Nc2ccccc2)cc1 (stereo not given)	–	–	inactive	–	–	–
O=c1oc2ccccc2c(O)c1C1=NC(S)=NC(c2cccnc2)C1 (stereo not given)	8%	inactive	–	–	–	–
CC(=O)N1N=C(c2c(O)c3ccccc3oc2=O)CC1c1cccnc1 (stereo not given)	–	–	–	20.83 s	3.373 min	Activity [6]: 11.45%; Activity [8]: inactive
COc1cc(-c2cc(-c3c(O)c4ccccc4oc3=O)nc(N)c2C#N)cc(OC)c1OC	–	–	–	9.5 s	0.193 min	–
COc1cc(C2CC(c3c(O)c4ccccc4oc3=O)=NN2)cc(OC)c1OC (stereo not given)	–	–	inactive	–	–	–
O=c1oc2ccccc2c(O)c1C1=NN(c2ccccc2)C(c2cccnc2)C1 (stereo not given)	8.7%	8.4%	–	22.5 s	0.827 min	LD50 at 3 days [9]: 1790 mg/kg
CC(=O)CC(c1ccccc1)c1c(O)c2ccccc2oc1=O (stereo not given) [WARFARIN]	–	–	–	18.17 s	4.445 min	LD50 at 3 days [9]: 760 mg/kg; Activity [10]: Dose-dependent effect
